Experimental data reported in patent US20260184712A1, “Heterocyclic Compounds as ENT Inhibitors and Compounds for Use in the Treatment of Cancers” (iTeos Belgium SA, priority 2022, published 2026).

Key:
Format in all cases: cell-based
Human ENT2 = molecular target: T1, Human ENT2 (Homo sapiens, UniProt Q14542); test: Adenosine uptake assay, ENT2-mediated transport in MDCKII cells; conditions: MDCKIIENT2-LV cells, probe adenosine 0.5 μM, pre-incubation 30 min, incubation 10 min
T1 construct: expressed in transfected cells
T1 sequence (Q14542 1-456): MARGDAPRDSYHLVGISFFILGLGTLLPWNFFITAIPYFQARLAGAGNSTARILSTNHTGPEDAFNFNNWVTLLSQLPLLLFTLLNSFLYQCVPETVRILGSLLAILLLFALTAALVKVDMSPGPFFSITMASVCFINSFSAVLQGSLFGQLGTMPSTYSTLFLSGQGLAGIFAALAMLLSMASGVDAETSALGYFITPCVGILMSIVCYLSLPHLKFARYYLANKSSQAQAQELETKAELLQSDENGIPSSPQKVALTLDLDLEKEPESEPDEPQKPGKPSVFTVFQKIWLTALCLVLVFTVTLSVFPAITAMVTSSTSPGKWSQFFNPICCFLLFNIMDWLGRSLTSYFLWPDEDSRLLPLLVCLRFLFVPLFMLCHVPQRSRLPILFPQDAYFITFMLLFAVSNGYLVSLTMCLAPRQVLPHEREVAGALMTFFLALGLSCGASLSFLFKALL
Experimental: The goal of this study was to determine the potency and selectivity of ENT1 inhibitors by measuring ENT1 and ENT2-mediated transport using an in vitro cellular uptake assay.
Human ENT1 and ENT2 transporters were stably expressed in Madin-Darby Canine Kidney II (MDCKII) cells via transduction. Cell lines overexpressing the relevant ENT1 or ENT2 molecules were preincubated with a dose range of the relevant compound for 30 minutes before introduction of the specific substrate at the concentration indicated in the Table assay parameters below. The transporter assay was conducted for the time specified in the Table assay parameters before the specific uptake of the substrate into the cells was quantified. Specific uptake was determined by comparing the uptake from the cells treated with the relevant compounds and the uptake by cells not overexpressing the transporter in question.
Specific uptake for each concentration of the test sample was normalized to the DMSO control value to generate a relative accumulation value (or relative transporter activity). Data were plotted against the log molar concentration of the test reagent used. IC50 values were generated with Prism version 9.4.1 and the following function: log(inhibitor) vs. response—Variable slope (four parameters).

[1] = test system: stimulated primary human T cells; test: T cell proliferation assay, Condition B (X-VIVO15, 2% HSA and 0.1% AAG); conditions: Condition B: X-VIVO15 medium containing HSA and α1-Acid Glycoprotein, anti-CD3/anti-CD28 beads, ATP, 4 days, CFSE-lo T cells
Outline: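 CFSE-labelled CD3+ T cells from healthy donors (2×10^4/well) in X-VIVO15 with 2% HSA and 0.1% AAG were stimulated with anti-CD3/CD28 beads. After 30 min pre-incubation with inhibitor, ATP was added and cells were cultured 4 days at 37° C. Flow cytometry gave % CFSE^lo cells, with IC50/IC90 and pICF from curve fits.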

[2] = test system: stimulated primary human T cells; test: T cell proliferation assay, Condition A (X-VIVO15); conditions: Condition A: X-VIVO15 medium, anti-CD3/anti-CD28 beads, ATP, 4 days, CFSE-lo T cells
Outline: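 CFSE-labelled human CD3+ T cells (2×10^4/well) in serum-free X-VIVO15 were activated with anti-CD3/CD28 beads (1 bead:2 cells), pre-incubated 30 min with inhibitor, then cultured with 100 uM ATP for 4 days at 37 °C. Flow cytometry measured %CFSE^lo cells, and IC50/IC90 came from log-concentration curve fits.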

SMILES	IC50 (Human ENT2)	IC50 [1]	IC50 [2]	IC50 ([1]; Homo sapiens, T-cell, 96 h)	IC50 ([2]; Homo sapiens, T-cell, 96 h)
O=[N+]([O-])c1ccc(CSc2ncnc3c2ncn3[C@@H]2O[C@H](CO)[C@@H](O)[C@H]2O)cc1 [NBMPR, reference compound]	> 1000 nM	20 to 500 nM	1 to 20 nM	–	–
COc1cc(C(=O)OCCCN2CCCN(CCCOC(=O)c3cc(OC)c(OC)c(OC)c3)CC2)cc(OC)c1OC [Dilazep, dilazep, reference compound]	> 1000 nM	–	–	20 to 500 nM	1 to 20 nM
